Results on 24 compounds are retold here after patent EP2958918B1, “DIHYDROPTERIDINONES II” (Boehringer Ingelheim International GmbH, priority 2013, dated 2014).

The IC50 is the concentration that gives 50% inhibition. Lower therefore signals greater potency in that assay.

For one assay, the system named is Aβ42. The assay can be described thus: Aβ42 cellular assay: inhibition of Aβ42 production in H4 neuroglioma cells stably expressing human APP695, electrochemiluminescence (Meso Scale Discovery) on supernatant. It is filed as cell-based. The settings on record: 22 hours incubation, tested range 30 µM to 0.1 nM. As for the experimental part:
(§1) Cells were plated out to near confluency. The compounds to be tested were received as 10 mM stocks in 100% DMSO. A dilution series was initially generated in 100% DMSO and then diluted 200-fold in cell culture media such that the tested concentration range was 30 µM to 0.1 nM and the final DMSO concentration was 0.5%. The diluted compounds were incubated with the cells for 22 hours in an incubator at 37°C and 5% CO2. Aβ42 as well as Aβ total levels were then measured post-incubation from the supernatant of the cells. Aβ42 levels were determined using a specific electrochemiluminescence assay provided by Meso Scale Discovery (Catalog # L21CA-1) according to the manufacturer's protocol. Aβ total levels were likewise determined using a specific electrochemiluminescence assay provided by Meso Scale Discovery (Catalog # L21ZA-1) according to the manufacturer's protocol.
(§2) In order to absolutely define the described compounds as modulators of y-Secretase as opposed to simply inhibitors of γ-Secretase, measurements of not only Aβ42 but also Aβ total are performed.
Consider `COc1cc(Nc2ncc3c(n2)N(C)C2(CCOCC2)C(=O)N3C)ccc1-c1cnc(C)o1` [Example 1], for which the IC50 is 120 nM.

On to `COc1cc(Nc2ncc3c(n2)N(C)C2(CCOCC2)C(=O)N3C)ccc1-n1cnc(C)c1` [Example 2], for which the IC50 amounted to 190 nM. Compared with the last compound, the IC50 is about 1.6-fold higher.

In turn, `Cc1ncc(-c2ccc(Nc3ncc4c(n3)N(C)C3(CCOCC3)C(=O)N4C)cn2)o1` [Example 3] came in with an IC50 of 5400 nM.

Consider `COc1cc(Nc2nc(C)c3c(n2)N(C)C2(CCOCC2)C(=O)N3C)ccc1-n1cnc(C)c1` [Example 4], for which the midpoint of inhibition, the IC50, lay at 290 nM.

With `Cc1ncc(-c2ccc(Nc3nc(C)c4c(n3)N(C)C3(CCOCC3)C(=O)N4C)cn2)o1` [Example 5], the IC50 is 3200 nM.

Regarding `COc1cc(Nc2ncc3c(n2)N(C)C2(CCOC2)C(=O)N3C)ccc1-n1cnc(C)c1` (stereo not drawn) [Example 6], the IC50 amounted to 220 nM.

`COc1cc(Nc2ncc3c(n2)N(C)C2(CCOC2)C(=O)N3C)ccc1-c1cnc(C)o1` (stereo not drawn) [Example 7] had an IC50 of 95 nM.

With `Cc1ncc(-c2ccc(Nc3ncc4c(n3)N(C)C3(CCOC3)C(=O)N4C)cn2)o1` (stereo not drawn) [Example 8], the midpoint of inhibition, the IC50, lay at 3000 nM.

The compound `COc1cc(Nc2ncc3c(n2)N(C)C2(CCOCC2)C(=O)N3)ccc1-n1cnc(C)c1` [Example 9] displayed an IC50 of 300 nM.

In turn, `COc1cc(Nc2ncc3c(n2)N(C)C2(CCOC2)C(=O)N3)ccc1-n1cnc(C)c1` (stereo not drawn) [Example 10] registered an IC50 of 620 nM.

The compound `COCCN1C(=O)C2(CCOCC2)N(C)c2nc(Nc3ccc(-n4cnc(C)c4)c(OC)c3)ncc21` [Example 11] came in with an IC50 of 310 nM.

Turning to `COCCN1C(=O)C2(CCOCC2)N(C)c2nc(Nc3ccc(-c4ccnc(C)c4)cc3)ncc21` [Example 12], the IC50 was 1900 nM.

Compound `COCCN1C(=O)C2(CCOCC2)N(C)c2nc(Nc3ccc(-n4cnc(C)n4)c(OC)c3)ncc21` [Example 13] returned an IC50 of 2200 nM.

On to `COCCN1C(=O)C2(CCOC2)N(C)c2nc(Nc3ccc(-c4ccnc(C)c4)cc3)ncc21` (stereo not drawn) [Example 14], for which half-maximal inhibition (IC50) was put at 1400 nM.

With `COCCN1C(=O)C2(CCOC2)N(C)c2nc(Nc3ccc(-n4cnc(C)n4)c(OC)c3)ncc21` (stereo not drawn) [Example 15], the IC50 amounted to 2100 nM.

Compound `COCCN1C(=O)C2(CCOC2)N(C)c2nc(Nc3ccc(-n4cnc(C)c4)c(OC)c3)ncc21` (stereo not drawn) [Example 16] gave an IC50 of 180 nM.

`CCCN1C(=O)C2(CCOCC2)N(C)c2nc(Nc3ccc(-n4cnc(C)c4)c(OC)c3)ncc21` [Example 17] had an IC50 of 94 nM. Against the preceding compound, the IC50 is about 1.9-fold lower.

The compound `Cc1cn(-c2ccc(Nc3ncc4c(n3)N(C)C3(CCOC3)C(=O)N4C)cc2C#N)cn1` (stereo not drawn) [Example 18] showed an IC50 of 300 nM.

For the compound `Cc1cn(-c2ccc(Nc3ncc4c(n3)NC3(CCOC3)C(=O)N4C)cc2C#N)cn1` (stereo not drawn) [Example 19], 280 nM corresponded to half-maximal inhibition (IC50).

As to `COc1cc(Nc2ncc3c(n2)NC2(CCOC2)C(=O)N3C)ccc1-n1cnc(C)c1` (stereo not drawn) [Example 20], the IC50 was found to be 790 nM.

The compound `COc1cc(Nc2ncc3c(n2)N(C)C2(CCOC2)C(=O)N3C2COC2)ccc1-n1cnc(C)c1` (stereo not drawn) [Example 21] had an IC50 of 220 nM.

On to `COc1cc(Nc2ncc3c(n2)NC2(CCOC2)C(=O)N3CC2CCOCC2)ccc1-n1cnc(C)c1` (stereo not drawn) [Example 22], for which the 50% inhibitory concentration (IC50) came to 3300 nM.

On to `COc1cc(Nc2ncc3c(n2)N(C)C2(CCOC2)C(=O)N3C(C)C)ccc1-n1cnc(C)c1` (stereo not drawn) [Example 23], for which the IC50 was 39 nM.

Take `COc1cc(Nc2ncc3c(n2)N(CC2CCOCC2)C2(CCOC2)C(=O)N3CC2CCOCC2)ccc1-n1cnc(C)c1` (stereo not drawn) [Example 24]: the midpoint of inhibition, the IC50, lay at 3000 nM.

A further assay has as its system Aβ total. In words: Aβ total cellular assay: inhibition of Aβ total production in H4 neuroglioma cells stably expressing human APP695, electrochemiluminescence (Meso Scale Discovery) on supernatant; used for the ratio Aβ total IC50 / Aβ42 IC50. It counts as cell-based. Particulars: higher ratio = more specific inhibition of Aβ42. The procedure: as §1, §2
Turning to `COc1cc(Nc2ncc3c(n2)N(C)C2(CCOCC2)C(=O)N3C)ccc1-c1cnc(C)o1` [Example 1], the “Ratio Aß(total)/Aß42” value is above 244.

Regarding `COc1cc(Nc2ncc3c(n2)N(C)C2(CCOCC2)C(=O)N3C)ccc1-n1cnc(C)c1` [Example 2], the “Ratio Aß(total)/Aß42” value is 89.

Consider `Cc1ncc(-c2ccc(Nc3ncc4c(n3)N(C)C3(CCOCC3)C(=O)N4C)cn2)o1` [Example 3], for which the “Ratio Aß(total)/Aß42” value is on record as above 6.

Regarding `COc1cc(Nc2nc(C)c3c(n2)N(C)C2(CCOCC2)C(=O)N3C)ccc1-n1cnc(C)c1` [Example 4], the “Ratio Aß(total)/Aß42” value is recorded as 101.

In the case of `Cc1ncc(-c2ccc(Nc3nc(C)c4c(n3)N(C)C3(CCOCC3)C(=O)N4C)cn2)o1` [Example 5], the “Ratio Aß(total)/Aß42” value is reported as above 9.

With `COc1cc(Nc2ncc3c(n2)N(C)C2(CCOC2)C(=O)N3C)ccc1-n1cnc(C)c1` (stereo not drawn) [Example 6], the “Ratio Aß(total)/Aß42” value is above 136.

For `COc1cc(Nc2ncc3c(n2)N(C)C2(CCOC2)C(=O)N3C)ccc1-c1cnc(C)o1` (stereo not drawn) [Example 7], the “Ratio Aß(total)/Aß42” value is reported as above 315.

Take `Cc1ncc(-c2ccc(Nc3ncc4c(n3)N(C)C3(CCOC3)C(=O)N4C)cn2)o1` (stereo not drawn) [Example 8]: the “Ratio Aß(total)/Aß42” value was above 10.

On to `COc1cc(Nc2ncc3c(n2)N(C)C2(CCOCC2)C(=O)N3)ccc1-n1cnc(C)c1` [Example 9], for which the “Ratio Aß(total)/Aß42” value is on record as above 101.

As to `COc1cc(Nc2ncc3c(n2)N(C)C2(CCOC2)C(=O)N3)ccc1-n1cnc(C)c1` (stereo not drawn) [Example 10], the “Ratio Aß(total)/Aß42” value came out at 46.

`COCCN1C(=O)C2(CCOCC2)N(C)c2nc(Nc3ccc(-n4cnc(C)c4)c(OC)c3)ncc21` [Example 11]: the “Ratio Aß(total)/Aß42” value amounted to 26.

In the case of `COCCN1C(=O)C2(CCOCC2)N(C)c2nc(Nc3ccc(-c4ccnc(C)c4)cc3)ncc21` [Example 12], the “Ratio Aß(total)/Aß42” value is 11.

For the compound `COCCN1C(=O)C2(CCOCC2)N(C)c2nc(Nc3ccc(-n4cnc(C)n4)c(OC)c3)ncc21` [Example 13], the “Ratio Aß(total)/Aß42” value is given as above 13.

Consider `COCCN1C(=O)C2(CCOC2)N(C)c2nc(Nc3ccc(-c4ccnc(C)c4)cc3)ncc21` (stereo not drawn) [Example 14], for which the “Ratio Aß(total)/Aß42” value is reported as above 27.

For `COCCN1C(=O)C2(CCOC2)N(C)c2nc(Nc3ccc(-n4cnc(C)n4)c(OC)c3)ncc21` (stereo not drawn) [Example 15], the “Ratio Aß(total)/Aß42” value is listed as above 15.

Regarding `COCCN1C(=O)C2(CCOC2)N(C)c2nc(Nc3ccc(-n4cnc(C)c4)c(OC)c3)ncc21` (stereo not drawn) [Example 16], the “Ratio Aß(total)/Aß42” value is listed as 88.

For `CCCN1C(=O)C2(CCOCC2)N(C)c2nc(Nc3ccc(-n4cnc(C)c4)c(OC)c3)ncc21` [Example 17], the “Ratio Aß(total)/Aß42” value stood at 65.

In the case of `Cc1cn(-c2ccc(Nc3ncc4c(n3)N(C)C3(CCOC3)C(=O)N4C)cc2C#N)cn1` (stereo not drawn) [Example 18], the “Ratio Aß(total)/Aß42” value was 145.

For the compound `Cc1cn(-c2ccc(Nc3ncc4c(n3)NC3(CCOC3)C(=O)N4C)cc2C#N)cn1` (stereo not drawn) [Example 19], the “Ratio Aß(total)/Aß42” value was above 257.

As for `COc1cc(Nc2ncc3c(n2)NC2(CCOC2)C(=O)N3C)ccc1-n1cnc(C)c1` (stereo not drawn) [Example 20], the “Ratio Aß(total)/Aß42” value is above 90.

As to `COc1cc(Nc2ncc3c(n2)N(C)C2(CCOC2)C(=O)N3C2COC2)ccc1-n1cnc(C)c1` (stereo not drawn) [Example 21], the “Ratio Aß(total)/Aß42” value turned out to be 114.

Turning to `COc1cc(Nc2ncc3c(n2)NC2(CCOC2)C(=O)N3CC2CCOCC2)ccc1-n1cnc(C)c1` (stereo not drawn) [Example 22], the “Ratio Aß(total)/Aß42” value was above 9.

Regarding `COc1cc(Nc2ncc3c(n2)N(C)C2(CCOC2)C(=O)N3C(C)C)ccc1-n1cnc(C)c1` (stereo not drawn) [Example 23], the “Ratio Aß(total)/Aß42” value stood at 599.

In the case of `COc1cc(Nc2ncc3c(n2)N(CC2CCOCC2)C2(CCOC2)C(=O)N3CC2CCOCC2)ccc1-n1cnc(C)c1` (stereo not drawn) [Example 24], the “Ratio Aß(total)/Aß42” value is recorded as above 10.
